In patent EP1764134B1, “Purine derivatives linked to arylpiperazines” (Spectrum Pharmaceuticals, Inc., priority 2001, dated 2003):

What was measured:
[1] = test system: mice; experiment: Conditioned avoidance testing (CAR, active avoidance); type: in vivo; conditions: S.C. 20 minutes before the test session
Experimental: Training: Consists of 20 trials with variable inter-trial intervals (Trained to 80% Avoidance Criteria). After a one-minute acclimation period, the house light and an acoustic 90dB tone (conditioned stimuli) are presented. A response (crossing to dark compartment) within 5 seconds ends the trial and trial is recorded as avoidance response (CAR). […] To avoid shock, animals learn to move from the lighted side of the chamber to the dark side when the cue is presented (avoidance) or moved when the shock is administered (escape).Testing: Vehicle or test compounds are administered S.C. 20 minutes before the test session. (Checking for disruption of cognition and attention) Table 3. Conditioned Avoidance Responding

[2] = test system: Caco-2 cells
[3] = test system: male C-57 mice; experiment: Pre-pulse inhibition testing: reversal of PCP disruption of pre-pulse inhibition of acoustic startle; type: in vivo; conditions: route not given (method: PO or SC); 20 minutes prior to PCP 5mg/kg IP

PERMEABILITY [2]	SMILES	Conditioned Avoidance Responding (overall effect / effect on escape or avoidance, in words) [1]	PCP Disruption of Pre-pulse Inhibition (result in words) [3]	Conditioned Avoidance Responding: effect on latency (in words) [1]	Conditioned Avoidance Responding: effect on avoidance (in words) [1]
High	O=C1CCCc2c1ccn2CCCN1CCN(c2cccc(C(F)(F)F)c2)CC1 [NEO-356, 1-{3-[4-(3-Trifluoromethylphenyl)piperazin-1-yl]propyl}-1,5,6,7-tetrahydroindo1-4-one]	No effect	No reversal		
High	O=C1CCCc2c1ccn2CCN1CCN(c2cccc(C(F)(F)F)c2)CC1 [NEO-359, 1-{2-[4-(3-Trifluoromethylphenyl)piperazin-1-yl]ethyl}-1,5,6,7-tetrahydroindol-4-one]	No effect on escape or avoidance	No reversal	Significant decrease in latency	
High	O=C1CCCc2c1ccn2CCCN1CCN(c2cccc(Cl)c2)CC1 [NEO-363, 1-{3-[4-(3-Chlorophenyl)piperazine-1-yl]propyl}-1,5,6,7-tetrahydroindol-4-one]	No effect			
High	COc1ccccc1N1CCN(CCCn2ccc3c2CCCC3=O)CC1 [NEO-370, 1-{3-[4-(2-Methoxyphenyl)piperazine-1-yl]propyl}-1,5,6,7-tetrahydroindol-4-one]			Significant increase in latency	Significant reduction in avoidance
High	O=C1CCCc2c1ccn2CCN1CCN(c2cccc(Cl)c2)CC1 [NEO-376, 1-{2-[4-(3-Chloro-phenyl)-piperazin-1-yl]-ethyl}-1,5,6,7-tetrahydro-indol-4-one]	No effect on escape or avoidance		significant increase in latency	
High	COc1ccccc1N1CCN(CCn2ccc3c2CCCC3=O)CC1 [NEO-377, 1-{2-[4-(2-Methoxyphenyl)-piperazin-1-yl]-ethyl}-1,5,6,7-tetrahydro-indol-4-one]			Significant increase in latency	Significant reduction in avoidance
High	O=C1CCCc2c1ccn2CCCN1CCN(c2ncccn2)CC1 [NEO-381, 1-{3-[4-(2-Pyrimidyl)piperazine-1-yl]propyl}-1,5,6,7-tetrahydroindol-4-one]	No effect	No reversal		
High	O=C1CCCc2c1ccn2CCCCN1CCN(c2cccc(C(F)(F)F)c2)CC1 [NEO-392, 1-{4-[4-(3-Trifluoromethylphenyl)piperazin-1-yl]butyl}-1,5,6,7-tetrahydroindol-4-one]			Significant increase in latency	Significant reduction in avoidance
High	CC(C)NCC(O)COc1cccc2ccccc12 (stereo not drawn) [Propranolol, reference compound]				
	Cc1nc2n(c(=O)c1CCN1CCC(c3noc4cc(F)ccc34)CC1)CCCC2 [Risperidone, risperidone, reference compound]			Significant increase in latency	Significant reduction in avoidance
